Tests used:
[1] = test system: norepinephrine (NE); test: Plasma norepinephrine levels in Examples 6 and 7; type: in vivo, human; details: for NE at End of Ex. 6/Start of Ex. 7: 4 weeks; for NE at End of Ex. 6/Start of Ex. 7 / NE on Day 29 of Ex. 7 Open Label: mean ± SD
Description: For pharmacodynamic assessments, blood samples for pharmacodynamic markers (including [dihydroxyphenylglycol] DHPG and NE) were collected after the subject had been seated for approximately 30 minutes.
Blood samples for pharmacodynamic markers ([dihydroxyphenylglycol] DHPG and NE) were collected at select study visits as defined in the Schedule of Study Procedures after the subject had been seated for 30 minutes. This was applicable to all consenting subjects.
Moreover, it has also been discovered that the supine norepinephrine level in a subject having multiple system atrophy continues to increase for at least about 8 weeks when the subject is treated daily with ampreloxetine as shown in Table 8:
Before treatment with ampreloxetine, supine norepinephrine (NE) levels in subjects with MSA are less than about 350 pg/mL. After about 8 weeks of treatment, supine norepinephrine levels are greater than about 500 pg/mL. Supine norepinephrine levels were determined using standard procedures (see, e.g., Goldstein et al., Annals of Neurology, 1989:26(4) 558-563; and Palma et al., Neurology, 2018:91(16) e1539-e1544).

[2] = human, cited from earlier work
[3] = test system: heart rate (HR) and mean arterial pressure (MAP); test: Cardiovascular model in anesthetized rat: intrinsic effect on MAP and HR; type: in vivo; details: anesthetized rats
Description: These studies were conducted to assess the effect of a single administration of ampreloxetine on heart rate (HR) and mean arterial pressure (MAP) in anesthetized rats. Using this cardiovascular model, the intrinsic effect on HR and the inhibition of tyramine pressor response were evaluated as surrogate measures that reflect the ability of ampreloxetine to inhibit norepinephrine transporters in the periphery.
Normotensive male Sprague-Dawley rats weighing between 250-350 g were anesthetized with an intraperitoneal injection (IP) of thiobutabarbital (Inactin). All animals were kept under complete anesthesia (i.e., absence of response to toe pinch test) for the surgery and for the duration of the study. The right common carotid artery and jugular vein were isolated and catheterized. The trachea was intubated to keep the airway open during the study. After completion of surgery, the arterial catheter was connected to a pressure transducer and baseline blood pressure [Systolic (SBP), Mean Arterial (MAP) and Diastolic (DBP)] and heart rate (HR) were recorded using the Notocord-HEM data acquisition system. Following at least 60 min of baseline (i.e., the last 10 min was stable), vehicle (10% Tween20, 2 mL/kg, IP) was administered and any potential effect was monitored for at least 10 min. After this period, rats were injected with either vehicle or ampreloxetine ([…], 2 mL/kg, IP) and changes in MAP and HR were monitored for 25 min. Rats were then challenged intravenously via the jugular vein catheter, with non-cumulative bolus doses of tyramine (0.03, 0.1, 0.3, and 1 mg/kg, 1 mL/kg, IV) given at 5 min intervals. After the last dose of tyramine, data acquisition continued for another 10 min before the experiment was terminated. In a separate group of animals, blood was collected to assess the concentration of ampreloxetine in plasma at 15 min and 60 min after dosing. Free plasma concentrations obtained from 15 min were used to construct the concentration response curve (CRC) to MAP and HR while concentrations from 60 min were used for the tyramine CRC. Animals were euthanized by carbon dioxide asphyxiation followed by thoracotomy.
Intrinsic hemodynamic effects were reported as the maximum change in MAP or HR induced by ampreloxetine before tyramine challenge. Inhibition of tyramine effect was normalized to the response to 1 mg/kg dose of tyramine in the vehicle control group. Concentration response curves (CRCs) of the change in MAP, HR and inhibition of tyramine response were analyzed through iterative curve fitting to a logistic equation using Prism 5.00™ (GraphPad, Inc.). The equation used was as follows:
Y=(Bottom+Top−Bottom)/(1+10^((Log EC50−X)*HillSlope)) […]

For `Fc1cc(F)c(OCc2ccccc2C2CCNCC2)c(F)c1` [Ampreloxetine, 4-[2-(2,4,6-trifluorophenoxymethyl)phenyl]piperidine], the “NE at End of Ex. 6/Start of Ex. 7” value ([1]; MSA, Example 6 ampreloxetine 10 mg QD group, start of Ex. 6: 280 ± 138) was 439 ± 250 pg/mL, the “NE on Day 29 of Ex. 7 Open Label” value ([1]; MSA, Example 6 ampreloxetine 10 mg QD group, about 8 weeks) was 539 ± 361 pg/mL and the “NE on Day 29 of Ex. 7 Open Label” value ([1]; MSA, Example 6 placebo group, received ampreloxetine in open-label part, start of Ex. 7: 291 ± 173) was 557 ± 298 pg/mL. For the same molecule, the “NE at End of Ex. 6/Start of Ex. 7” value ([1]; PAF, Example 6 ampreloxetine 10 mg QD group, start of Ex. 6: 232 ± 110) was 357 ± 204 pg/mL, the “NE on Day 29 of Ex. 7 Open Label” value ([1]; PAF, Example 6 ampreloxetine 10 mg QD group, about 8 weeks) was 455 ± 238 pg/mL and the “NE on Day 29 of Ex. 7 Open Label” value ([1]; PAF, Example 6 placebo group, received ampreloxetine in open-label part, start of Ex. 7: 156 ± 82) was 267 ± 87 pg/mL. The “NE at End of Ex. 6/Start of Ex. 7” value ([1]; PD, Example 6 ampreloxetine 10 mg QD group, start of Ex. 6: 340 ± 237) was 407 ± 154 pg/mL, the “NE on Day 29 of Ex. 7 Open Label” value ([1]; PD, Example 6 ampreloxetine 10 mg QD group, about 8 weeks) was 552 ± 270 pg/mL and the “NE on Day 29 of Ex. 7 Open Label” value ([1]; PD, Example 6 placebo group, received ampreloxetine in open-label part, start of Ex. 7: 340 ± 266) was 443 ± 157 pg/mL. For the same molecule, the Supine norepinephrine levels ([1]; subjects with MSA, after about 8 weeks of treatment, before treatment less than about 350) was “greater than 500 pg/mL”, the “Dose proportionality of Cmax and AUC” value ([2]; administered doses) was “linear with near dose proportional exposure” and the “Time to steady state” value ([2]; once daily dosing) was at most 6 days. The “Effect on MAP and HR” value ([3]; 0.01-30 mg/kg IP) was “dose dependently increased MAP and HR”, the “Maximum change in HR” value ([3]; 0.01-30 mg/kg IP) was 28.1 (22.4-33.7) bpm and the “Maximum change in MAP” value ([3]; 0.01-30 mg/kg IP) was 13.2 (4.4-22.1) mm Hg. For the same molecule, the “HR potency (HR EC25), free plasma concentration giving 25 bpm change in HR” value ([3]; IP, free plasma concentration at 15 min) was 8.6 nM.
